This is an account of results in patent US8486953B2, “Thienopyrimidines for pharmaceutical compositions” (Boehringer Ingelheim International GmbH, priority 2008, dated 2013).

Each structure is given as a SMILES string.

For orientation: IC50 means the concentration that inhibits the measured activity by half. A high value points to weaker potency in that assay.

Test [1] deals with human Mnk1 (Homo sapiens (Human), UniProt Q9BUB5). Kind of test: Mnk1 in vitro kinase assay (indirect fluorescence polarization). Type of test: biochemical. The protocol:
(§1) Inhibitory potency of compounds against Mnk1, Mnk2a and other kinases was assessed with assays based on a format known to those skilled in the art as the indirect (competitive) fluorescence polarization. The assay detection system comprises a small fluorophore-labeled phospho-peptide (termed ligand) bound to a phospho-specific antibody. The product generated by the kinase reaction competes with the ligand for antibody binding. Based on the larger molecular volume of the bound ligand, which results in a lower rotation rate in solution, its emitted light has a higher degree of polarization than the one from the free ligand.
(§2) In brief, the open reading frames of human Mnk1 and Mnk2a were amplified from cDNA using the forward/reverse primer pairs
(§3) (utilized restriction sites underlined), respectively, and cloned into the BamHI and SalI sites of the vector pGEX-4T1 (Amersham, Sweden, cat. no. 27-4580-01). These constructs allow prokaryotic expression of Mnk1 or Mnk2a as fusion protein with a N-terminal glutathione S-transferase (GST) tag, referred to as GST-Mnk1 or GST-Mnk2a. The following expression and purification procedure was identical for GST-Mnk1 and GST-Mnk2a, referring in general to GST-Mnk, when not distinguishing between the two isoforms. Expression of GST-Mnk was in E. coli BL21 (Merck Biosciences, Germany, cat. no. 69449). Cells were grown in LB-Bouillon (Merck, Germany, cat. no. 1.10285) supplemented with 100 μg/ml ampicillin (Sigma, Germany, cat. no. A9518) at 37° C. When the culture had reached a density corresponding to an A600 of 0.8, an equal volume of ice cold LB/ampicillin was added, the culture transferred to 25° C. and induced for 4 h with 1 mM isopropyl thiogalactoside (IPTG, Roth, Germany, cat. no. 2316.4). Cells harvested by centrifugation were resuspended in 10 ml lysis buffer (50 mM tris(hydroxymethyl)aminomethane hydrochloride (Tris/HCl, Sigma, Germany, cat. no. T5941) pH 7.5, 300 mM sodium chloride (NaCl, Sigma, Germany, cat. no. S7653), 5% (w/v) glycerol (Sigma, Germany, cat. no. G5516), 3 mM DTT dithiotreitol (DTT, Sigma, Germany, cat. no. D9779)) per gram wet weight cell pellet. Lysates were prepared by disruption of cells with a sonifier and subsequent clearing by centrifugation at 38000 g for 45 min at 4° C.
(§4) The lysate was applied to a GSTPrep FF 16/10 column (Amersham, Sweden, cat. no. 17-5234-01) equilibrated with lysis buffer. Removal of unbound material was with 3 column volumes (CV) lysis buffer. Elution was with 2 CV of elution buffer (50 mM Tris/HCl pH 7.5, 300 mM NaCl, 5% (w/v) glycerol, 20 mM glutathione (Sigma, Germany, cat. no. G4251)). Peak fractions were pooled and the protein transferred into storage buffer (50 mM Tris/HCl pH 7.5, 200 mM NaCl, 0.1 mM ethylene glycol-bis(2-aminoethylether)-N,N,N′,N′-tetraacetic acid (EGTA, Aldrich, Germany, cat. no. 23, 453-2), 1 mM DTT, 10% (w/v) glycerol, 0.5 M sucrose (Sigma, Germany, cat. no. SO389) by gel filtration on a PD10 desalting column (Amersham, Sweden, cat. no. 17-0851-01). Aliquots were shock frozen in liquid nitrogen and stored at −80° C.
(§5) Activation of Mnk1 and Mnk2a was at a concentration of 2.5 μM of either purified GST-Mnk1 or GST-Mnk2a by incubation with 150 nM pre-activated NHis-ERK2 (see ERK2 assay for preparation) and 50 μM adenosine triphosphate (ATP, Sigma, cat. no. A2699) in a buffer comprising 20 mM N-(2-hydroxyethyl)piperazine-N′-(2-ethanesulfonic acid) (HEPES, Fluka, Germany, cat. no 54459)/potassium hydroxide (KOH, Roth, Germany, cat. no 6751.1) pH 7.4, 10 mM magnesium chloride (MgCl2, Sigma, Germany, cat. no. M2670), 0.25 mM DTT, 0.05% (w/v) polyoxyethylene 20 stearylether (Brij 78, Sigma, Germany, cat. no. P4019) (HMDB buffer) for 45 min at 30° C.
On the technique in general: Fluorescence polarisation rises when a labelled molecule tumbles more slowly, as on binding a larger partner.

Test [2] addresses human Mnk2a (Homo sapiens (Human), UniProt Q9HBH9). Kind of test: Mnk2a in vitro kinase assay (indirect fluorescence polarization). Format: biochemical. The protocol:
as §1, §2, §3, §4, §5

Test [3] has as its system Mnk2 (Mnk2a or Mnk2b) or Mnk1. As to conditions: cell culture cells transfected with Mnk2 (Mnk2a or Mnk2b) or Mnk1; cited from earlier work.

Sequence of human Mnk1 (Q9BUB5 other isoform, or with tags, fused parts or gaps): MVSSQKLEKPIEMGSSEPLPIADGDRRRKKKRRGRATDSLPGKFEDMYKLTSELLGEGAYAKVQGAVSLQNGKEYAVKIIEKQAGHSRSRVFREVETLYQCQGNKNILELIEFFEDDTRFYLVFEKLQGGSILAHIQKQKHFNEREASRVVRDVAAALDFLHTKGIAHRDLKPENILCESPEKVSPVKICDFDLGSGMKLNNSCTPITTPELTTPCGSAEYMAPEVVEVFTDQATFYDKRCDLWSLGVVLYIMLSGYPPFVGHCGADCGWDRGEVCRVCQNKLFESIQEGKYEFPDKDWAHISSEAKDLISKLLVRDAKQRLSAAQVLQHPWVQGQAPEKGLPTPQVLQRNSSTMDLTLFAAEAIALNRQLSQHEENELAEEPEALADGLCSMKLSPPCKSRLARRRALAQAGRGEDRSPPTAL
Sequence of human Mnk2a (Q9HBH9 whole entry): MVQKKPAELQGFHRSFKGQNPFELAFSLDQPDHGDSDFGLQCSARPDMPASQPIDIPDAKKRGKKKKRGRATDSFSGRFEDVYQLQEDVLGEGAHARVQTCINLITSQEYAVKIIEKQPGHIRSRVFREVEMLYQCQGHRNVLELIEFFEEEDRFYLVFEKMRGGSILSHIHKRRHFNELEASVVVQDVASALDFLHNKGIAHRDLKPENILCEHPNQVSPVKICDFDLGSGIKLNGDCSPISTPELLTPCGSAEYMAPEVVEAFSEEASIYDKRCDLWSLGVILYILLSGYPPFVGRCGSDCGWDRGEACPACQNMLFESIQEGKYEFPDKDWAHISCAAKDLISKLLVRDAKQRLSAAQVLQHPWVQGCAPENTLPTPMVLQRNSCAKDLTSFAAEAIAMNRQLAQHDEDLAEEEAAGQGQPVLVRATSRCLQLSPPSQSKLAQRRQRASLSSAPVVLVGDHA

Take `COCCNC(=O)c1sc2ncnc(Nc3ccc(F)cc3OC3CCOCC3)c2c1C` [Example 6, 4-(4-Fluoro-2-(tetrahydro-2H-pyran-4-yloxy)phenylamino)-N-(2-methoxyethyl)-5-methylthieno[2,3-d]pyrimidine-6-carboxamide]: the IC50 is 180 nM in test [1] and 35 nM in test [2].
Consider `Cc1c(C(=O)NCCCN(C)C)sc2ncnc(Nc3ccc(C(F)(F)F)nc3OC3CCOCC3)c12` [Example 34, 4-(2-(Tetrahydro-2H-pyran-4-yloxy)-6-(trifluoromethyl)pyridin-3-ylamino)-N-(3-(dimethylamino)propyl)-5-methylthieno[2,3-d]pyrimidine-6-carboxamide], for which the figures for the IC50 in test [1] and in test [2] were 680 nM and 560 nM, respectively.
Turning to `Cc1c(C(=O)NCCN2CCOCC2)sc2ncnc(Nc3ccc(F)cc3OC3CCOCC3)c12` [Example 10, 4-(4-Fluoro-2-(tetrahydro-2H-pyran-4-yloxy)phenylamino)-5-methyl-N-(2-morpholinoethyl)thieno[2,3-d]pyrimidine-6-carboxamide], the IC50 in test [1] is 210 nM; in test [2], 34 nM.
On to `Cc1c(C(N)=O)sc2ncnc(Nc3ccc(F)cc3OC3CCN(Cc4ncon4)CC3)c12` [Example 48, 4-(2-(1-((1,2,4-Oxadiazol-3-yl)methyl)piperidin-4-yloxy)-4-fluorophenylamino)-5-methylthieno[2,3-d]pyrimidine-6-carboxamide], for which the IC50 in test [1] is 460 nM; in test [2] it was 92 nM.
In the same order, the values of `CCOc1cc(C(N)=O)ccc1Nc1ncnc2sc(C(N)=O)c(C)c12` [Example 2, 4-(4-Carbamoyl-2-ethoxyphenylamino)-5-methylthieno[2,3-d]pyrimidine-6-carboxamide] are 120 nM and 28 nM.
In the case of `Fc1ccc(Nc2ncnc3sc4c(c23)CCNC4)c(OC2CCOCC2)c1` [Example 41, [4-fluoro-2-(tetrahydro-2H-pyran-4-yloxy)-phenyl]-(5,6,7,8-tetrahydro-pyrido[4′,3′:4,5]thieno[2,3-d]pyrimidin-4-yl)-amine], the IC50 in test [1] is 210 nM; in test [2] it was 110 nM.
For `Nc1ncnc2n[nH]c(Nc3ccc(F)cc3)c12` [CGP57380], in test [3], the “reduction of phosphorylated eIF4E” value is recorded as “strong reduction”.
With `Cc1c(C(=O)NCCCN(C)C)sc2ncnc(Nc3ccc(F)cc3OC3CCOCC3)c12` [Example 9, N-(3-(Dimethylamino)propyl)-4-(4-fluoro-2-(tetrahydro-2H-pyran-4-yloxy)phenyl-amino)-5-methylthieno[2,3-d]pyrimidine-6-carboxamide], the IC50 in test [1] was 100 nM; in test [2] it was 27 nM.
In the same order, the values of `Cc1c(C(=O)NCCCN(C)C)sc2ncnc(Nc3ccc(F)cc3OC(C)C)c12` [Example 53, N-(3-(Dimethylamino)propyl)-4-(4-fluoro-2-iso-propoxyphenylamino)-5-methylthieno[2,3-d]pyrimidine-6-carboxamide] are 35 nM and 6 nM.
